For this assay, the target named is human TrkA receptor (Homo sapiens (Human), UniProt P04629). Kind of assay: DiscoverX PathHunter TrkA functional assay (NGF-stimulated U2OS cells). The format is cell-based. The following applies: U2OS cells expressing human TrkA-PK, Shc1-EA and p75NTR; compound 1 h, then NGF at ~80% of maximal response for 3 h; luminescence.
Chain of human TrkA receptor (P04629 33-796): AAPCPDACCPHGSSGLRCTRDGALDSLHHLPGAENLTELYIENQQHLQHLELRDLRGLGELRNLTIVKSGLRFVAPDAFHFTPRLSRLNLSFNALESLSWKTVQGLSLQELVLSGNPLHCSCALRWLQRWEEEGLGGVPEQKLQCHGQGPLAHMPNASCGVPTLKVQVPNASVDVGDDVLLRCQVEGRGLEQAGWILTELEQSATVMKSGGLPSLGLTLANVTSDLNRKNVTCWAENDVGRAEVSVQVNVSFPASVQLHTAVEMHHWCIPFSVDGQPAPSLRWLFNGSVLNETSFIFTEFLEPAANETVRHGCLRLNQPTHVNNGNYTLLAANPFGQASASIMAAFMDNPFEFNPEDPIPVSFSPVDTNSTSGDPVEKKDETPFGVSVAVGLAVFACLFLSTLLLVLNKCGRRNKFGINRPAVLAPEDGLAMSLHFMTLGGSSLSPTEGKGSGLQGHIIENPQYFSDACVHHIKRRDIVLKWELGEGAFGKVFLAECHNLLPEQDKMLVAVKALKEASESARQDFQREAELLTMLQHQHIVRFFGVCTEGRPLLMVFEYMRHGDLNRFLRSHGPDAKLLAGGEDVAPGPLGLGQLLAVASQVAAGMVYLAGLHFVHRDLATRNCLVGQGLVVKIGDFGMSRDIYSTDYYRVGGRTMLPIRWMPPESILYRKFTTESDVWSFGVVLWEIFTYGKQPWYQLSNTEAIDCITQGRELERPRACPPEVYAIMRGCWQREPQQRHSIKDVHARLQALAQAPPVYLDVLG
Experimental: TrkA functional activity was measured using a DiscoverX PathHunter assay. In this assay, U2OS cells express the human TrkA receptor as a fusion with the weakly complementing fragment of B-galactosidase, which DiscoverX calls “Prolink (PK)”; additionally, Shcl is fused with a larger fragment, which is called “Enzyme Acceptor (EA)”. Activation of the TrkA receptor, upon NGF addition, results in the kinase domain being phosphorylated, resulting in subsequent recruitment of Shcl-EA protein. That recruitment results in an active B-galactosidase enzyme that is detected by addition of a chemiluminescent substrate. The human p75^NTR protein was also expressed as a co-receptor for NGF.
All reagents were purchased from DiscoverX, except for the receptor agonists (NGF, BDNF, NT3) which were purchased from Peprotech. Cells were expanded and frozen into cryovials, and stored in the vapor phase of liquid nitrogen, and thawed immediately before use. Thawed cells were added to a 384-well plate at 7500 cells/well, and allowed to incubate overnight. Compound at various concentrations was added the following morning and allowed to incubate on cells for 1 h. Then, NGF was added at a concentration sufficient to elicit ˜80% of a maximal response and allowed to incubate for 3 h at ambient temperature. DiscoverX PathHunter detection reagent was then added and the plate was further incubated for 1 h in the dark. The plate was then read via luminescence on the Perkin Elmer Envision.
In general, IC50 refers to the concentration at which inhibition is half-maximal. Read a high IC50 as weaker potency in that assay. With `NC(=O)c1ncc(-c2cnc(-c3ccccc3)c(NC(=O)c3cc(-c4ncccn4)c(C(F)(F)F)cc3F)c2)cn1` [Example 175, 5-(5-(2-fluoro-5-(pyrimidin-2-yl)-4-(trifluoromethyl)benzamido)-6-phenylpyridin-3-yl)pyrimidine-2-carboxamide], it took 12.4 nM to reach half-maximal inhibition (IC50).

For `Cc1noc(-c2cc(C(=O)Nc3cnc(C)nc3-c3ccccc3)ccc2C(F)(F)F)n1` [Example 30, 3-(3-methyl-1,2,4-oxadiazol-5-yl)-N-(2-methyl-4-phenylpyrimidin-5-yl)-4-(trifluoromethyl)benzamide], inhibition was half-maximal at 130 nM (IC50). This IC50 lies about 10-fold higher than the previous one.

For the compound `NC(=O)Cc1ncc(NC(=O)c2cc(-c3ccccn3)c(C(F)(F)F)cc2F)c(-c2ccccc2)n1` [Example 123, N-(2-(2-amino-2-oxoethyl)-4-phenylpyrimidin-5-yl)-2-fluoro-5-(pyridin-2-yl)-4-(trifluoromethyl)benzamide], half-maximal inhibition (IC50) required 8.4 nM.

On to `CN(Cc1ccc(NC(=O)c2cc(-c3ccn(C)n3)c(C(F)(F)F)cc2F)c(-c2ccccc2)n1)C(=O)NCCO` [Example 79, 2-fluoro-N-(6-((3-(2-hydroxyethyl)-1-methylureido)methyl)-2-phenylpyridin-3-yl)-5-(1-methyl-1H-pyrazol-3-yl)-4-(trifluoromethyl)benzamide], for which the IC50 amounted to 1.1 nM.

In the case of `CNC(=O)Cc1ncc(NC(=O)c2ccc(C(F)(F)F)c(-c3ccn(C)n3)c2)c(-c2ccccc2)n1` [Example 103, 3-(1-methyl-1H-pyrazol-3-yl)-N-(2-(2-(methylamino)-2-oxoethyl)-4-phenylpyrimidin-5-yl)-4-(trifluoromethyl)benzamide], half-maximal inhibition (IC50) required 4.1 nM.

`Cn1ccc(-c2cc(C(=O)Nc3cc4c(nc3-c3ccccc3)CCN(CC(=O)O)C4)ccc2C(F)(F)F)n1` [Example 157, 2-(3-(3-(1-methyl-1H-pyrazol-3-yl)-4-(trifluoromethyl)benzamido)-2-phenyl-7,8-dihydro-1,6-naphthyridin-6(5H)-yl)acetic acid] gave an IC50 of 23 nM.

Compound `CC(=O)NCc1cccc(-c2nc(C)ncc2NC(=O)c2cc(-c3ccn(C)n3)c(C(F)(F)F)cc2F)c1` [Example 132, N-(4-(3-(Acetamidomethyl)phenyl)-2-methylpyrimidin-5-yl)-2-fluoro-5-(1-methyl-1H-pyrazol-3-yl)-4-(trifluoromethyl)benzamide] came in with an IC50 of 16 nM.

`CN1CC(NC(=O)c2cnc(-c3ccccc3)c(NC(=O)c3cc(-c4cc[nH]n4)c(C(F)(F)F)cc3F)c2)C1` [Example 90, 5-(2-fluoro-5-(1H-pyrazol-3-yl)-4-(trifluoromethyl)benzamido)-N-(1-methylazetidin-3-yl)-6-phenylnicotinamide] gave an IC50 of 80 nM.

The compound `Cn1ccc(-c2cc(C(=O)Nc3nccnc3-c3ccccc3)ccc2C(F)(F)F)n1` [Example 25, 3-(1-methyl-1H-pyrazol-3-yl)-N-(3-phenylpyrazin-2-yl)-4-(trifluoromethyl)benzamide] gave an IC50 of 83 nM.

The compound `Cn1ccc(-c2cc(C(=O)Nc3cnc(CCN4CCOCC4)nc3-c3ccccc3)ccc2C(F)(F)F)n1` [Example 38, 3-(1-methyl-1H-pyrazol-3-yl)-N-(2-(2-morpholinoethyl)-4-phenylpyrimidin-5-yl)-4-(trifluoromethyl)benzamide] yielded an IC50 of 25 nM.

As for `Cn1ccc(-c2cc(C(=O)Nc3cc(C(N)=O)c(N)nc3-c3ccccc3)ccc2C(F)(F)F)n1` [Example 87, 2-amino-5-(3-(1-methyl-1H-pyrazol-3-yl)-4-(trifluoromethyl)benzamido)-6-phenylnicotinamide], the IC50 was 8.5 nM. This IC50 is about 2.9-fold lower than that of the compound before.

On to `Cn1ccc(-c2cnc(N3CCC[C@@H]3CO)c(NC(=O)c3cc(-c4ncccn4)c(C(F)(F)F)cc3F)c2)n1` [Example 138, (R)-2-fluoro-N-(2-(2-(hydroxymethyl)pyrrolidin-1-yl)-5-(1-methyl-1H-pyrazol-3-yl)pyridin-3-yl)-5-(pyrimidin-2-yl)-4-(trifluoromethyl)benzamide], for which half-maximal inhibition (IC50) was put at 27 nM.

As to `NCc1ncc(NC(=O)c2ccc(C(F)(F)F)c(-c3ccn(C(F)F)n3)c2)c(-c2ccccc2)n1` [Example 43], the IC50 was determined as 55 nM.

The record behind these values is patent US9815846B2 (Merck Sharp & Dohme Corp., priority 2014, dated 2017).
